Some test systems named below: NCI-H522 lung; M14 melanoma; SNB-75 CNS; OVCAR-8 ovarian; NCI/ADR-RES ovarian; TK-10 renal; HT29 colon; SK-MEL-2 melanoma; MALME-3M melanoma; OVCAR-5 ovarian.
Experiment in all cases: NCI tumour cell line growth inhibition, 48 h

≈ marks a conversion by molar mass, not a printed value. Where “and” joins values, the source holds several entries; their conditions need not be identical. Equal values may be shown once.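 Growth conditions: 96-well plates. Treatment: test compound, 48 hours, 5 concentrations. Analysis: linear interpolation between bracketing concentrations; unreached endpoints set to highest concentration. GI50 marks 50% less growth. The concentration for full growth arrest is given as TGI.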

This is an account of results in PubChem BioAssay (NCI).

As for `CC1/C=C/C=C/CC/C=C/C=C/C=C/C=C/C(OC2OC(C)C(O)C(N)C2O)CC2OC(CC(O)C(O)CCC(O)CC(O)CC(O)CC(=O)OC(C)C(C)C1O)CC(O)C2C(=O)O` (stereo not given), the GI50 in the assay with NCI-H522 lung is 29.8 µg/mL (≈ 32.7 µM); in the assay with M14 melanoma it was 27.8 µg/mL (≈ 30.5 µM); with SNB-75 CNS, 58.2 µg/mL (≈ 64 µM); with OVCAR-8 ovarian, 33.3 µg/mL (≈ 36.5 µM); in the assay on NCI/ADR-RES ovarian, 41 µg/mL (≈ 45.1 µM); with TK-10 renal, 28.3 µg/mL (≈ 31.1 µM). Moreover, the GI50 is 37.2 µg/mL (≈ 40.9 µM) in the assay on HT29 colon, 31.8 µg/mL (≈ 35 µM) in the assay on SK-MEL-2 melanoma, 28.1 µg/mL (≈ 30.9 µM) in the assay with MALME-3M melanoma and 49.5 µg/mL (≈ 54.4 µM) in the assay with OVCAR-5 ovarian. Also, the TGI in the assay on NCI-H522 lung was 34.3 µM and 53.7 µg/mL; with M14 melanoma, 34.9 µM and 48.8 µg/mL; in the assay with SNB-75 CNS it was 40.6 µM and 150 µg/mL; with OVCAR-8 ovarian it was 47 µM and 74.6 µg/mL; in the assay on NCI/ADR-RES ovarian, 45.2 µM and 93.8 µg/mL; with TK-10 renal, 32.5 µM and 53.6 µg/mL. Besides, the TGI was 32.8 µM and 84.8 µg/mL with HT29 colon; 92.4 µM and 94.1 µg/mL in the assay with SK-MEL-2 melanoma; 33 µM and 51.3 µg/mL in the assay on MALME-3M melanoma; 35.8 µM and 135 µg/mL with OVCAR-5 ovarian.
With `O=c1oc2ccccc2cc1-c1ccc([N+](=O)[O-])cc1`, the TGI with NCI-H522 lung, in the assay on M14 melanoma, with SNB-75 CNS, in the assay with OVCAR-8 ovarian, in the assay on NCI/ADR-RES ovarian and in the assay with TK-10 renal was over 100 µM in each case. Moreover, the TGI with HT29 colon, with SK-MEL-2 melanoma, in the assay on MALME-3M melanoma and in the assay on OVCAR-5 ovarian was over 100 µM each time.
As to `C=C1C(=O)OC2C1C(OC(=O)/C(C)=C/C)CC(O)(CCl)C1C(OC(C)=O)C=C(C)C21O` (stereo not given), the TGI in the assay on NCI-H522 lung came out at 5.94 µM; in the assay with M14 melanoma, 25.7 µM; in the assay with SNB-75 CNS, 64.6 µM; in the assay with OVCAR-8 ovarian, 26.5 µM; with NCI/ADR-RES ovarian, 61 µM; with TK-10 renal, 27.3 µM. In addition, the TGI in the assay with HT29 colon turned out to be 31.9 µM; in the assay on SK-MEL-2 melanoma, 32.5 µM; in the assay with MALME-3M melanoma it was 14.9 µM; in the assay with OVCAR-5 ovarian, 31.9 µM.
